Test results as given in patent US8999962B2, “Method for increasing bone density and/or reducing any osteochondral defects in an animal and a composition including vitamin K” (priority 2008, dated 2015).

What was measured:
[1] = Degradation of K1 by sunlight; type: physicochemical; settings: after 4 hours exposure to bright sunlight
Procedure: Degradation of K1 begins rapidly as soon as photosynthesis ceases and the rate of degradation is directly related to the intensity of UVB. Pure K1 in solution is denatured in 20 minutes in direct sunlight. […] Aside from the degradation of K1, a further problem herbivores have is that the concentration of other fat soluble nutrients such as lutein in green vegetation may be up to 100 times higher than the concentration of vitamin K1. Lutein competes with the absorption and metabolism of vitamin K1 (see Mitchell G. V, Cook K. K., Jenkins M. Y, Grundel E International Journal of Vitamin and Nutrition Research 2001, 71: 30) as well as high levels of Vitamin E (see Tovar A, Ameho C. K. Blumberg J. B., Peterson J. W, Smith D, Booth S. Nutrition And Metabolism 2006, 3:29) and therefore with the combination of UV, the plant matrix and competition with other fat soluble vitamins, the actual amount of vitamin K1 available is much less than quoted or expected. It follows that the vitamin K requirement for animals and humans has been grossly underestimated resulting in vitamin K deficiency.
It is known that Vitamin K1 (K1) is rapidly degraded by sunlight (UV). For vitamin K1 to be a stable component of a vitamin product, it is necessary to protect it using physical and/or chemical means. It was shown that a loss of approximately 20% of K1 occurred after 4 hours exposure to bright sunlight.

[2] = pure K1 in solution, direct sunlight; cited from earlier work
[3] = of the apparent concentration in the leaf, cited from earlier work

**Q.** Which “loss of K1” value [1] does the source give for `CC1=C(C/C=C(\C)CCC[C@H](C)CCC[C@H](C)CCCC(C)C)C(=O)c2ccccc2C1=O` [Example K1, Phylloquinone] here?
**A.** approximately 20%

**Q.** And the “time in which pure K1 is denatured” value [2]?
**A.** 20 min

**Q.** What about the “natural bioavailability when consumed with fat” value ([3]; consumed with fat) of the same compound?
**A.** 15-16%

**Q.** What about the natural bioavailability [3] of the same compound?
**A.** 8-10%
